According to ChEMBL document CHEMBL3046135, “Iodine (III)-mediated synthesis of some 2-aryl/hetarylbenzoxazoles as antibacterial/antifungal agents” (2010):
Activity calls are given as the source filed them. The rule behind the calls is not given here.

What was measured:
Format in all cases: functional
Escherichia coli [1] = experiment: Antibacterial activity against Escherichia coli MTCC 51 at 100 ug/ml after 24 hr by agar well diffusion method
Aspergillus niger [2] = experiment: Antifungal activity against Aspergillus niger at 50 ug/ml after 96 hr
Bacillus subtilis [3] = experiment: Antibacterial activity against Bacillus subtilis MTCC 121 at 100 ug/ml after 24 hr by agar well diffusion method
Pseudomonas putida [4] = experiment: Antibacterial activity against Pseudomonas putida at 100 ug/ml after 24 hr by agar well diffusion method
Bacillus subtilis [5] = experiment: Antibacterial activity against Bacillus subtilis MTCC 121 at 10 ug/ml after 24 hr by agar well diffusion method
[6] = tested on: Geobacillus stearothermophilus; experiment: Antibacterial activity against Geobacillus stearothermophilus MTCC 8508 at 100 ug/ml after 24 hr by agar well diffusion method
Pseudomonas putida [7] = experiment: Antibacterial activity against Pseudomonas putida at 10 ug/ml after 24 hr by agar well diffusion method
Aspergillus niger [8] = experiment: Antifungal activity against Aspergillus niger at 10 ug/ml after 96 hr
Escherichia coli [9] = experiment: Antibacterial activity against Escherichia coli MTCC 51 at 50 ug/ml after 24 hr by agar well diffusion method
Aspergillus flavus [10] = experiment: Antifungal activity against Aspergillus flavus at 100 ug/ml after 96 hr
[11] = tested on: Geobacillus stearothermophilus; experiment: Antibacterial activity against Geobacillus stearothermophilus MTCC 8508 at 10 ug/ml after 24 hr by agar well diffusion method
Aspergillus flavus [12] = experiment: Antifungal activity against Aspergillus flavus at 50 ug/ml after 96 hr
Aspergillus niger [13] = experiment: Antifungal activity against Aspergillus niger at 100 ug/ml after 96 hr
Pseudomonas putida [14] = experiment: Antibacterial activity against Pseudomonas putida at 50 ug/ml after 24 hr by agar well diffusion method
[15] = tested on: Geobacillus stearothermophilus; experiment: Antibacterial activity against Geobacillus stearothermophilus MTCC 8508 at 50 ug/ml after 24 hr by agar well diffusion method
Aspergillus flavus [16] = experiment: Antifungal activity against Aspergillus flavus at 10 ug/ml after 96 hr
Bacillus subtilis [17] = experiment: Antibacterial activity against Bacillus subtilis MTCC 121 at 50 ug/ml after 24 hr by agar well diffusion method
Escherichia coli [18] = experiment: Antibacterial activity against Escherichia coli MTCC 51 at 10 ug/ml after 24 hr by agar well diffusion method

SMILES | diameter of the inhibition zone (DIZ) (Escherichia coli [1]) | inhibition at 50 µg/mL (Aspergillus niger [2]) | diameter of the inhibition zone (DIZ) (Bacillus subtilis [3]) | diameter of the inhibition zone (DIZ) (Pseudomonas putida [4]) | diameter of the inhibition zone (DIZ) (Bacillus subtilis [5]) | diameter of the inhibition zone (DIZ) [6] | diameter of the inhibition zone (DIZ) (Pseudomonas putida [7]) | inhibition at 10 µg/mL (Aspergillus niger [8]) | diameter of the inhibition zone (DIZ) (Escherichia coli [9]) | inhibition at 100 µg/mL (Aspergillus flavus [10]) | diameter of the inhibition zone (DIZ) [11] | inhibition at 50 µg/mL (Aspergillus flavus [12]) | inhibition at 100 µg/mL (Aspergillus niger [13]) | diameter of the inhibition zone (DIZ) (Pseudomonas putida [14]) | diameter of the inhibition zone (DIZ) [15] | inhibition at 10 µg/mL (Aspergillus flavus [16]) | diameter of the inhibition zone (DIZ) (Bacillus subtilis [17]) | diameter of the inhibition zone (DIZ) (Escherichia coli [18])
O=[N+]([O-])c1ccc(-c2nc3cc(Cl)ccc3o2)cc1 | 30.24% | 66.9% | 17.22% | 31.16% | inactive | 19.37% | inactive | 43.2% | 17.14% | 78.5% | inactive | 49.6% | 73.6% | 18.13% | 12.26% | 19.9% | 10.13% | inactive
Cc1ccc(-c2nc3cc(Cl)ccc3o2)cc1 | 43.33% | 7.47% | 42.13% | 73.47% | 17.22% | 43.33% | 14.22% | 4.19% | 32.77% | 66.9% | 17.92% | 43.2% | 21.4% | 54.56% | 30.87% | 20.1% | 31.37% | 18.62%
Cc1ccc(-c2nc3ccccc3o2)s1 | 34.29% | 5.23% | 17.33% | 35.45% | inactive | 19.66% | 13.47% | 4.89% | 21.74% | 88% | inactive | 51.6% | 16.6% | 22.33% | 12.66% | 24.3% | 11.33% | 12.45%
C[C@@H]1C[C@@H]([C@H](O)CC2CC(=O)NC(=O)C2)C(=O)[C@@H](C)C1 [CYCLOHEXIMIDE] |  | 23.5% |  |  |  |  |  | 11.8% |  | 78.9% |  | 63.1% | 35.3% |  |  | 15.8% |  | 
O=C(N[C@H](CO)[C@H](O)c1ccc([N+](=O)[O-])cc1)C(Cl)Cl [CHLORAMPHENICOL] | 65.4% |  | 64.2% | 71.24% | 26.33% | 77.2% | 19.33% |  | 50.4% |  | 25.33% |  |  | 43.4% | 53.2% |  | 47.2% | 20.33%
COc1cc(-c2nc3cc(Cl)ccc3o2)ccc1O [4-(5-CHLOROBENZO[D]OXAZOL-2-YL)-2-METHOXYPHENOL] | 31.33% | 5.88% | 31.33% | 37.33% | 9.33% | 31.74% | 12.66% | 8.93% | 21.43% | 86.2% | 10.66% | 51.4% | 21.9% | 26.33% | 21.33% | 29% | 20.43% | 9.33%
